Results taken from US20090252834A1, “Compositions comprising glucose anti-metabolites” (priority 2004, published 2009).

Experiment: Pharmacokinetics of mannoheptulose, once daily in a nutritionally-balanced composition, adult Labrador Retrievers
Assay type: in vivo, Labrador Retriever dogs
Method: The pharmacokinetics of mannoheptulose can be determined in six adult, male Labrador Retriever dogs fed a nutritionally-balanced composition providing mannoheptulose at levels of 0, 1 or 2 mg/kg of body weight of the dog. Mannoheptulose is provided as an enriched source of avocado extract in the 1 and 2 mg/kg diets. The mean age of the dogs is 4.2 years and the age ranges from 3.3 to 6.1 years. The average body weight of all dogs is 33 kg and the body weight ranges from 28 to 36 kg. Dogs are adapted for 14 days to a nutritionally-balanced control composition (Eukanuba Senior Maintenance Formula) containing no mannoheptulose, avocado extract or avocado meal (0 mg/kg mannoheptulose). The two compositions containing mannoheptulose are the nutritionally-balanced control composition formulated with avocado extract to provide a mannoheptulose dose of 1 or 2 mg/kg of body weight when fed to a dog. The amount of composition offered to the dogs is based on feeding guidelines for the control composition and the target weight range and body condition of the dogs. After 14 days, dogs are fed one of the three compositions for 9 days. On day 9, the dogs are fed their daily allotment of composition as a single meal at 0730. Dog 1 and dog 2 are fed the control composition containing 0 mg/kg mannoheptulose, dog 3 and dog 4 are fed the composition containing 1 mg/kg mannoheptulose, and dog 5 and dog 6 are fed the composition containing 2 mg/kg mannoheptulose. Pharmacokinetics of mannoheptulose following once daily administration of mannoheptulose in a nutritionally-balanced composition is determined by collecting serial blood samples (3 mL) from each dog on day 9 using a Vacutainer blood collection system and jugular venipuncture. Blood samples are collected at −30, 0, 30, 60, 90, 120, 240, 360, 480, 600, 720 and 1,440 minutes relative to each dog receiving their entire daily allotment of composition as a single meal. Plasma mannoheptulose concentrations are measured using high-performance liquid chromatography tandem mass spectrometry as described herein below.
A one-compartment model is used to calculate mannoheptulose pharmacokinetics based on plasma mannoheptulose levels following once daily oral administration of mannoheptulose in a nutritionally-balanced composition (PV(t)). The model is: PV(t)=dose/(a·BW)e^−kt where: a mannoheptulose pool size (dose/(enrichment at to)), BW=body weight, k=rate constant of elimination (In Et−1n E0)/−t, and t=time. Area under each plasma mannoheptulose curve is determined using a one-way, repeated measures analysis of variance (GraphPad Prism version 4.00 for Windows).
High performance liquid chromatography tandem mass spectrometry (HPLC/MS/MS) is utilized to determine the amount of mannoheptulose present in the plasma of adult dogs. D-mannoheptulose and its chemical analog internal standard (D7-glucose) are isolated from dog plasma by a protein precipitation procedure (described herein below) using a 96-well format. […] Detection and quantitation is by mass spectrometry (MS) operating under multiple reaction monitoring MS/MS conditions. Concentrations of D-mannoheptulose in dog plasma can be quantitated from approximately 20 to 5000 ng/mL. […] Specimen concentrations are determined by back-calculation using a weighted (1/x^2) linear regression of a calibration curve generated from prepared D-mannoheptulose calibration standards.

SMILES: O=C(CO)[C@@H](O)[C@@H](O)[C@H](O)[C@H](O)CO [mannoheptulose]
- response of plasma mannoheptulose levels to dietary mannoheptulose levels (0, 1, 2 mg/kg): dose-dependent manner
- time for plasma mannoheptulose to return to non-detectable levels (after consumption of the single daily meal): ≤ 24 h
- half-life (male, Labrador Retriever, dog, plasma, once daily oral, 2 mg/kg, mathematical modeling): 6.25 h
- turnover time (once daily oral, 2 mg/kg, mathematical modeling): 9.0 h
- order of plasma kinetics (once daily oral, 1 or 2 mg/kg): first order kinetics
